Laboratory results published in US5633437A, “Gene exhibiting resistance to acetolactate synthase inhibitor herbicides” (Sandoz Ltd., priority 1994, dated 1997).
Where a name gives a salt, the structure may show the parent alone.

Legend:
[1] = molecular target: T1, acetolactate synthase (ALS), sensitive enzyme from S-XANST (Xanthium sp., UniProt Q41717); experiment: ALS enzymatic evaluation, sensitive enzyme isolated from S-XANST; type: biochemical, cocklebur (Xanthium sp.); settings: ALS from S-XANST leaves, 40% ammonium sulfate fraction; read-out: I50 (M) Sensitive
T1 construct: mature chloroplast form
T1 sequence (Q41717 78-648): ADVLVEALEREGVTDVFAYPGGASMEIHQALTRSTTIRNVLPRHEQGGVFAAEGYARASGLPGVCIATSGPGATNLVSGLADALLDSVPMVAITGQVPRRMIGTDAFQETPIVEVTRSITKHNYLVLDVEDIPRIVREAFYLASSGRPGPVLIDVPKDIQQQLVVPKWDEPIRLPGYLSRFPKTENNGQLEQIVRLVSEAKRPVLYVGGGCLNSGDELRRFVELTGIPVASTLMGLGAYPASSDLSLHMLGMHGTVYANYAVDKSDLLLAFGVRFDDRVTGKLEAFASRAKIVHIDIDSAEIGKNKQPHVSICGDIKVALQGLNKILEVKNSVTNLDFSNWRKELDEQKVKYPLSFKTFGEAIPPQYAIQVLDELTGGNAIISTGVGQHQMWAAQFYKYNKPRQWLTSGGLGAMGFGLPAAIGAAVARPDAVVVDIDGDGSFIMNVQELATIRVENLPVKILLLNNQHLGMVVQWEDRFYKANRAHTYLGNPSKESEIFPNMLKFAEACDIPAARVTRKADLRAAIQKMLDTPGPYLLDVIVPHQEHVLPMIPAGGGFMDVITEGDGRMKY
Protocol: (§1) Cocklebur is grown in a greenhouse. Five grams of fresh green leaf tissue are ground to a powder in a mortar at the temperature of liquid nitrogen. The powder is extracted with 100 ml of buffer containing 50 mM N-[2-hydroxyethyl]piperazine-N'-[3-propanesulfonic acid], (EPPS); pH 7.2; 5 mM MgCl2; 2 mM EDTA; 1 mM valine; 1 mM leucine; 10% glycerol; 10 mM pyruvate; 5 mM Dithiothreitol; 1% polyvinyl polypyrrolidone (PVPP) and […] flavin adenine dinucleotide and filtered through cheesecloth. The filtrate was centrifuged at 15,000×g for 15 min.
(§2) The procedures used for the isolation of ALS from cocklebur are similar to those known in the art. The supernatant resulting from centrifugation of the crude extract is brought to 40% ammonium sulfate. The ammonium sulfate pellet is not frozen and is resuspended in standard buffer used for I50 determinations and then gel-filtered through the same buffer. This preparation is used for determinations of Km for pyruvate and I50. The Km is equal to the substrate concentration at which the initial reaction velocity is half maximal and also referred to as the Michaelis-Menten constant. The Km is determined using Lineweaver-Burke double reciporcial plots. […]
(§3) The I50 values by various ALS inhibitors are determined on both sensitive enzymes isolated from S-XANST and resistant enzymes isolated from R-XANST and are reported in Table 1.

[2] = molecular target: T2, acetolactate synthase (ALS), resistant enzyme from R-XANST (Xanthium sp., UniProt Q41716); experiment: ALS enzymatic evaluation, resistant enzyme isolated from R-XANST; type: biochemical; settings: ALS from R-XANST leaves, 40% ammonium sulfate fraction; read-out: I50 (M) Resistant
T2 construct: mature chloroplast form
T2 sequence (Q41716 78-648): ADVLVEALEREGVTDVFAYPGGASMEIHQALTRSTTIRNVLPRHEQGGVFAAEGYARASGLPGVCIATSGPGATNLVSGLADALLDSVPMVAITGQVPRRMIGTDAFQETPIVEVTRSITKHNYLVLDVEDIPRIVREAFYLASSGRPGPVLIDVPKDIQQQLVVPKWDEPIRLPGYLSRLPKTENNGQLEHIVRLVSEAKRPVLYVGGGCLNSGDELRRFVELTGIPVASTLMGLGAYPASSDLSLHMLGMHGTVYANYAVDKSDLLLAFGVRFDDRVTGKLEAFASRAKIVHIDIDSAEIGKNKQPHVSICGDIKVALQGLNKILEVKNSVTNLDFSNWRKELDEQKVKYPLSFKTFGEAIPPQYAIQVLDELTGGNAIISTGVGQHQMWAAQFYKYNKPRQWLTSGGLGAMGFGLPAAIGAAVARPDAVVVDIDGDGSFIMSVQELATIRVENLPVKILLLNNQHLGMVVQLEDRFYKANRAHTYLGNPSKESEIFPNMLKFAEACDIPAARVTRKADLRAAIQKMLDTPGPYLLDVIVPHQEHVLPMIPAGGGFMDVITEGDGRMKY
Protocol: as §1
(§4) The procedures used for the isolation of ALS from cocklebur are similar to those known in the art. The supernatant resulting from centrifugation of the crude extract is brought to 40% ammonium sulfate. The ammonium sulfate pellet is not frozen and is resuspended in standard buffer used for I50 determinations and then gel-filtered through the same buffer. This preparation is used for determinations of Km for pyruvate and I50. The Km is equal to the substrate concentration at which the initial reaction velocity is half maximal and also referred to as the Michaelis-Menten constant. The Km is determined using Lineweaver-Burke double reciporcial plots. I50 is the concentration in which 50% inhibition is observed and is determined from linear regression analysis of the linear portion of the dose/response curve.
as §3

[3] = test system: acetolactate synthase (ALS), resistant enzyme from R-XANST; experiment: as above; type: biochemical; settings: ratio I50 resistant / I50 sensitive enzyme
Protocol: as §1, §4, §3

[4] = test system: S-XANST (susceptible cocklebur); experiment: Herbicidal evaluation, post-emergence spray on susceptible cocklebur; type: in vivo, cocklebur (Xanthium sp.)
Protocol: (§5) Seeds of S-XANST and R-XANST are planted one per pot in soil mix. Pots are placed on a heating mat and the soil temperature increased from about 65° F. to about 90° F. At the 2-3 leaf stage, plants are treated with test herbicides using a linear track laboratory sprayer calibrated to deliver 42.5 GPA. Plants are watered by subirrigation after herbicide application. Observations of percent control are made 21 days after herbicide application. The test ALS inhibitor herbicides are listed below including their chemical class:
(§6) The effect of the various ALS inhibitors against R-XANST and S-XANST is depicted in FIG. 5. The results are reported as % control wherein 100% injury is equal to complete control as determined by growth. All treatments are replicated four times in a randomized complete block design.
(§7) Additionally tests are preformed at much higher herbicide rates to determine the extent of resistance. […] Glean tested at 1.56 lb ai/A, a rate of 100 times field use, provided 88% injury to R-XANST. Pursuit provides 90% injury to R-XANST when used at 100 times the normal field rate, (6.25 lb ai/A).

[5] = test system: R-XANST (resistant cocklebur biotype); experiment: Herbicidal evaluation, post-emergence spray on resistant cocklebur; type: in vivo, cocklebur (Xanthium sp.)
Protocol: as §5, §6, §7

[6] = substrate: CC(=O)C(=O)O; experiment: ALS enzymatic evaluation, resistant enzyme isolated from R-XANST; type: biochemical; settings: other: R-XANST enzyme; Lineweaver-Burke plots; pH 7.2
Protocol: as §1, §2, §3

Molecule	IC50 [2]	Fold-resistance (R/S) [3]	also measured
Picolinate	0.001 M	1,100	IC50 [1]: 9e-08 M
COc1cc(OC)nc(Sc2cccc(Cl)c2C(=O)O)n1 [Staple]	–	–	injury to S-XANST ([4]; 0.03 lb ai/A, 21 days after application): greater than 90%; injury to R-XANST ([5]; highest test rate, 9.0 lb ai/A): ≤ 55%
COc1nc(C)nc(NC(=O)NS(=O)(=O)c2ccccc2Cl)n1 [Chlorsulfurson, 2-chloro-N-[[CH-methoxy-6-methyl-1,3,5-triazin-2-yl-amino]carbonyl]benzenesulfonamide]	5e-05 M	6,250	injury to R-XANST ([5]; 1.56 lb ai/A, 100 times field use): 88%
CC(C)C1(C)N=C(c2nc3ccccc3cc2C(=O)O)NC1=O (stereo not drawn) [Imazaquin, 2-[4,5-dihydro-4-methyl-4-(1-methylethyl)-5-oxo-1H-imidazole-2-yl]-3-quinolinecarboxylic acid]	0.0001 M	250	–
CCc1cnc(C2=NC(C)(C(C)C)C(=O)N2)c(C(=O)O)c1 (single isomer, unassigned; (+)) [Imazethapyr, (+)-2-[4,5-dihydro-4-methyl-4-(1-methylethyl)-5-oxo-1H-imidazole-2-yl]-5-ethyl-3-pyridinecarboxylic acid]	0.0001 M	100	injury to R-XANST ([5]; 100 times the normal field rate, 6.25 lb ai/A): 90%
CC(C)C[C@H](N)C(=O)O [Leucine]	0.001 M	1	–
Cc1ccn2nc(S(=O)(=O)Nc3c(F)cccc3F)nc2n1 [Broadstrike]	0.0006 M	10,000	injury to S-XANST ([4]; 0.01 lb ai/A): greater than 95%; injury on R-XANST ([5]; 6 lb ai/A): 25%
COc1cc(OC)nc(C(=O)c2c(Cl)ccc(Cl)c2C(=O)O)n1 [Di-Cl benzoate]	0.0006 M	2,200	–
COc1cc(OC)nc(C(=O)c2c(Cl)ccc(Cl)c2C(=O)O)n1 [SAN 2, 3-6-Dichloro-2-[(4,6-dimethoxy-2-pyrimidinyl)carbonyl]benzoic acid, isopropyl ammonium salt]	–	–	injury to S-XANST ([4]; 0.1 lb ai/A, 2-3 leaf stage, 21 days after application): greater than 95%; injury to R-XANST ([5]; 30 lb ai/A, 21 days after application): ≤ 50%
acetolactate synthase (ALS), resistant enzyme from R-XANST (Xanthium sp.) (protein, mature chloroplast form) ADVLVEALEREGVTDVFAYPGGASMEIHQALTRSTTIRNVLPRHEQGGVFAAEGYARASGLPGVCIATSGPGATNLVSGLADALLDSVPMVAITGQVPRRMIGTDAFQETPIVEVTRSITKHNYLVLDVEDIPRIVREAFYLASSGRPGPVLIDVPKDIQQQLVVPKWDEPIRLPGYLSRLPKTENNGQLEHIVRLVSEAKRPVLYVGGGCLNSGDELRRFVELTGIPVASTLMGLGAYPASSDLSLHMLGMHGTVYANYAVDKSDLLLAFGVRFDDRVTGKLEAFASRAKIVHIDIDSAEIGKNKQPHVSICGDIKVALQGLNKILEVKNSVTNLDFSNWRKELDEQKVKYPLSFKTFGEAIPPQYAIQVLDELTGGNAIISTGVGQHQMWAAQFYKYNKPRQWLTSGGLGAMGFGLPAAIGAAVARPDAVVVDIDGDGSFIMSVQELATIRVENLPVKILLLNNQHLGMVVQLEDRFYKANRAHTYLGNPSKESEIFPNMLKFAEACDIPAARVTRKADLRAAIQKMLDTPGPYLLDVIVPHQEHVLPMIPAGGGFMDVITEGDGRMKY	–	–	Km [6]: 6 mM
